Reference: US9737540B2, “Combination treatment of cancer” (ASTRAZENECA AB, priority 2011, dated 2017)
Like-named read-outs stand apart in the source and are kept apart here.

What was measured:
[1] = tested on: LNCaP prostate cancer cells (PTEN null, androgen receptor positive); assay type: in vivo; conditions: castrated mice
[2] = tested on: LNCaP prostate tumour cell line; experiment: Proliferation assay, Sytox Green endpoint, live cell number after 5 days (LNCaP); assay type: cell-based; conditions: LNCaP cells; monotherapy or with MDV-3100 0.1 μM to 10 μM; n=3
Protocol: (§1) The LNCaP and VCAP prostate tumour cell lines (American Tissue Culture Collection) were routinely cultured in RMPI supplemented with 10% FCS and 2 mM L-glutamine. To determine the effect of AZD5363 and MDV-3100, either as a monotherapy or in combination, on cell growth, a proliferation assay was performed using the Sytox Green endpoint to measure live cell number after 5 days. […] Cells were then dosed with increasing concentrations of AZD5363 (0.01-1 μM), MDV-3100 (0.1-10 μM) or a combination of each agent in a 6×6 matrix format. After 5-day exposure to compound, Sytox Green nucleic acid dye (Invitrogen) diluted in TBS-EDTA (TBS=Tris-buffered saline, EDTA=ethylenediaminetetraacetic acid) buffer was added to cells at a final concentration of […] and the number of dead cells detected using an Acumen Explorer. Cells were then permeabilised by the addition of saponin (0.03% final concentration, diluted in TBS-EDTA buffer), incubated overnight and a total cell count measured. The live cell count was then determined by subtracting the number of dead cells per well from the total number of cells. […] The data is presented as % growth using the NCI formulae as follows: [(Ti-Tz)/(C-Tz)]×100 for concentrations for which Ti>/=Tz [(Ti-Tz)/Tz]×100 for concentrations for which Ti<Tz. […] Synergism of the drug combination was evaluated using a unified approach described by C. […]

[3] = tested on: VCAP prostate tumour cell line; experiment: Proliferation assay, Sytox Green endpoint, live cell number after 5 days (VCAP); assay type: cell-based; conditions: VCAP cells; monotherapy or with MDV-3100 0.1 μM to 10 μM; n=3
Protocol: as §1

| Compound | inhibition of tumour volume ([1]; bicalutamide monotherapy 50 mg/kg qd) | Effect on cell growth / cell death (mean % growth, FIG. 1) [2] | Effect on cell growth (mean % growth, FIG. 2) [3] | inhibition of tumour volume ([1]; AZD5363 monotherapy 100 mg/kg bd, 5 days on, 2 days off) |
| --- | --- | --- | --- | --- |
| CC(O)(CS(=O)(=O)c1ccc(F)cc1)C(=O)Nc1ccc(C#N)c(C(F)(F)F)c1 (stereo not shown) [bicalutamide, N-[4-cyano-3-(trifluoromethyl)-phenyl]-3-[(4-fluorophenyl)-sulfonyl]-2-hydroxy-2-methylpropanamide, reference compound] | 42% | – | – | – |
| NC1(C(=O)N[C@@H](CCO)c2ccc(Cl)cc2)CCN(c2ncnc3[nH]ccc23)CC1 [AZD5363, (S)-4-amino-N-(1-(4-chlorophenyl)-3-hydroxypropyl)-1-(7H-pyrrolo[2,3-d]pyrimidin-4-yl)piperidine-4-carboxamide] | – | can inhibit the growth of LNCaP cells and induce cell death as a monotherapy | can inhibit the growth of VCAP cells as a monotherapy | 56% |
